Source: US6521609B1, “Use of CGRP antagonists and CGRP release inhibitors for combating menopausal hot flushes” (Boehringer Ingelheim Pharma KG, priority 1999, dated 2003)

What follows are molecules tested on increased blood flow through the facial skin caused by endogenous CGRP (assay: Trigeminal ganglion stimulation in marmosets: facial skin blood flow (laser Doppler)). Conditions: anaesthetized marmosets, i.v. 5 minutes before trigeminal ganglion stimulation (10 Hz, 2 mA, 2 msec, 30 seconds).
Assay type: in vivo, marmoset
Experimental: The efficacy of the following test substances was characterised by determining the dose administered i.v. which reduces by 50% the increased blood flow through the skin of the face which has been brought about by endogenous CGRP:
Marmosets of both sexes (300-400 g) are anaesthetized with pentobarbital (initially with 30 mg/kg, i.p., followed by infusion of 6 mg/kg/h, […].). The body temperature is maintained at 37° C. using a heating plate. Pancuronium is administered as a muscle relaxant (initially 1 mg/kg, 0.5 mg after each hour thereafter). The animal's head is secured in a stereotactical apparatus. After the skin on the head has been opened using a lengthwise incision, a small hole is drilled in the skull and a bipolar electrode (Rhodes SNES 100) is lowered into the trigeminal ganglion. […] The petrous bone serves as a guide for placing the electrode (CCX-Digital X-ray apparatus). The position of the electrode in the ganglion is monitored at the end of each experiment. The stimulation parameters are: 10 Hz, 2 mA, 2 msec, for 30 seconds. The blood flow in the micro-vessels of the facial skin is determined by laser Doppler flow measurement using a PeriFlux Laser Doppler System. The animals are exposed to 2 to 3 stimulation periods at intervals of 30 minutes in each case. The first stimulation serves as a reference value for the other stimulations. The test substances are administered i.v. 5 minutes before the 2nd and 3rd stimulation periods.

`Nc1c(Br)cc(C[C@@H](NC(=O)N2CCC(N3Cc4ccccc4NC3=O)CC2)C(=O)N2CCC(N3CCCCC3)CC2)cc1Br` [AM] and `CN(C)CCc1c[nH]c2ccc(C[C@H]3COC(=O)N3)cc12` [DB] are within 1.5-fold of each other in “50% dose (i.v. dose which reduces by 50% the increased blood flow through the facial skin caused by endogenous CGRP)” value: 0.046 mg/kg for the first, 0.035 mg/kg for the second.

For `CNS(=O)(=O)Cc1ccc2[nH]cc(CCN(C)C)c2c1` [DA], the “50% dose (i.v. dose which reduces by 50% the increased blood flow through the facial skin caused by endogenous CGRP)” value was 0.280 mg/kg.
